Legend:
Type in all cases: cell-based, human
ICAM-1 = test: ELISA of TNF-α induced ICAM-1 protein on HAEC
Procedure: Cell culture and treatment of HAEC: Human aortic endothelial cells (HAEC; Cambrex Bio Science Walkersville, Inc., Walkersville, Md.) are cultured in M199 supplemented with 8% FBS, 100 μg/ml heparin, 10 ng/ml endothelial growth factor, 100 μg/ml hypothalamus extract, 2 mM L-glutamine, 1% non-essential amino acids, 100 units/ml penicillin and 100 μg/ml streptomycin. HAEC are subcultured on gelatin pre-coated: 96-well tissue culture plates (Corning Incorporated; Corning, N.Y.) for viability assays and ELISA; 100-mm tissue culture dishes (BD Falcon; Franklin Lakes, N.J.) for Northern blot analyses, Western blot analyses and EMSA; 35-mm tissue culture dishes (Corning) for adhesion assays and on 24-well tissue culture plates for luciferase promoter assays (BD Falcon). All experiments are performed with confluent HAEC monolayers. Unless noted otherwise, HAEC are treated with 25 ng/ml TNF-α, in the absence or presence of C-10 or 0.25% DMSO (carrier control for C-10), for 2-24 hrs. […]
HAEC are washed with cold HBSS+, fixed in 1% formaldehyde at 4° C. for 20 min., washed with cold HBSS+, and incubated in cold M199 containing 8% FBS. […] Following a 10 min. incubation at room temperature, the absorbance of the fluid in each well is determined at 450 nm using a micro-well plate spectrophotometer (Molecular Devices; Sunnyvale, Calif.). […]

IRF-1 = test: TNF-alpha-induced IRF-1 protein levels (Western blot)
Procedure: (§1) Cell culture and treatment of HAEC: Human aortic endothelial cells (HAEC; Cambrex Bio Science Walkersville, Inc., Walkersville, Md.) are cultured in M199 supplemented with 8% FBS, 100 μg/ml heparin, 10 ng/ml endothelial growth factor, 100 μg/ml hypothalamus extract, 2 mM L-glutamine, 1% non-essential amino acids, 100 units/ml penicillin and 100 μg/ml streptomycin. HAEC are subcultured on gelatin pre-coated: 96-well tissue culture plates (Corning Incorporated; Corning, N.Y.) for viability assays and ELISA; 100-mm tissue culture dishes (BD Falcon; Franklin Lakes, N.J.) for Northern blot analyses, Western blot analyses and EMSA; 35-mm tissue culture dishes (Corning) for adhesion assays and on 24-well tissue culture plates for luciferase promoter assays (BD Falcon). All experiments are performed with confluent HAEC monolayers. Unless noted otherwise, HAEC are treated with 25 ng/ml TNF-α, in the absence or presence of C-10 or 0.25% DMSO (carrier control for C-10), for 2-24 hrs. The concentration of DMSO is held constant at 0.25% (unless indicated otherwise) for all of the C-10 conditions.
Western blot analysis: Whole cell lysates are prepared in lysis buffer (150 mM NaCl, 1% IGEPAL CA-630, 50 mM Tris-HCL pH 8.0). 20 μg of lysates are then resolved on 4-12% Bis-Tris PAGE gels under denaturing conditions using the NuPAGE Bis-Tris System (Invitrogen; Carlsbad, Calif.). Proteins are transferred to nitrocellulose membranes, which are probed with IRF-1 antibody. Subsequent binding of HRP conjugated goat anti-rabbit Ab (sc-2054, Santa Cruz Biotechnology, Inc.) is detected using Lumigen PS-3 detection reagents (Amersham Pharmacia Biotech.; Piscataway, N.J.).

HAEC = HAEC viability (MTS assay and visual inspection); conditions: concentrations used in this study
Procedure: as §1

Cn1c(-c2ccccc2)cnc1S [5-Phenylmethimazole]
effect on TNF-α induced protein expression of ICAM-1 (ICAM-1; 4 hr. TNF-α): little to no effect
effect on TNF-α induced protein expression of ICAM-1 (ICAM-1; 24 hr. TNF-α): no effect
effect on TNF-α induced IRF-1 protein expression (IRF-1; 0.5 mM or 1 mM, 2 hr. TNF-α, HAEC): reduced
% INHIBITION of TNF-alpha-induced IRF-1 Protein levels (IRF-1; 10 :M, mean ± SD): 76 ± 12%
inhibition at 5000 µM (IRF-1; Homo sapiens, 5 mM, mean ± SD): 95 ± 5%
effect on HAEC viability (HAEC): little to no effect

— patent US20050209295A1, “Methimazole derivatives and tautomeric cyclic thiones to inhibit cell adhesion” (priority 2004, published 2005)
